How the values were obtained:
Conditions in all cases: after 10, 20, 40 and 60 min at all dilutions 1:100, 1:200, 1:400, 1:800
[1] = system: St. Aereus; experiment: Antimicrobial testing by agar dilution, St. Aereus; type: cell-based, Staphylococcus aureus
Experimental: (§1) The antimicrobial properties of the 3-cyano-2-ethoxy-9-(2-nitrobenzylidene)-4-(2-nitrophenyl)-6,7,8,9-tetrahydro-5H-cyclohepta[b]pyridine was studied by the method of agar dilution. Test solutions of each compound was prepared in concentration of 1% using dimethylformamide as a solvent then they are diluted in physiological solution to obtain the final experimental dilutions 1:100, 1:200, 1:400, 1:800. The effect of these substances are compared with furacillin in a controlable study. The testing microbes used were gram positive bacteria St. Aereus, gram negative bacteria E. coli, Ps. aeruginosa and Candida albicans fungi were taken.
(§2) The experiments used for this survey were meat-pentonlu agar (EPA) for cultivation of bacteria and Saburo environment for fungi. Each experiment used 1 ml of test solution on each plate 500 min. Add 2 drops of emulsified with microbes feel. All experimental samples were taken from the agar after 10, 20, 40, 60 minutes in the environment on the basis of Patrk planted. Bacteria were cultivated at a temperature of 37° C. for 1 day and the mushroom was kept in a thermostat for […] at a temperature of 28° C. in the. Then results were checked.

[2] = system: E. coli; experiment: Antimicrobial testing by agar dilution, E. coli; type: cell-based, Escherichia coli
Experimental: as §1, §2

[3] = system: Ps. aeruginosa; experiment: Antimicrobial testing by agar dilution, Ps. aeruginosa; type: cell-based, Pseudomonas aeruginosa
Experimental: as §1, §2

[4] = system: Candida albicans; experiment: Antimicrobial testing by agar dilution, Candida albicans; type: cell-based
Experimental: as §1, §2

Measured: inhibition activity (in words)

CCOc1nc2c(c(-c3ccccc3[N+](=O)[O-])c1C#N)CCCCC2=Cc1ccccc1[N+](=O)[O-] [3-cyano-2-ethoxy-9-(2-nitrobenzylidene)-4-(2-nitrophenyl)-6,7,8,9-tetrahydro-5H-cyclohepta[b]pyridine]
most higher inhibition activity: all assays above

Source: patent US11976043B1, “3-cyano-2-ethoxy-9-(2-nitrobenzylidene)-4-(2-nitrophenyl)-6,7,8,9-tetrahydro-5H-cyclohepta[b]pyridine as an antimicrobial compound” (KING FAISAL UNIVERSITY, priority 2023, dated 2024)
